# Patent publication US20050038022A1, “Method for treatment of cancer and compositions for use therein” (Unisearch Limited, priority 2001, published 2005)
# Legend:
# HepG2 [1] = assay: [3H]thymidine incorporation assay, HepG2; format: cell-based, human; details: 5 days
# Protocol: (§1) HepG2, Hep3-B, Hep1-6, SKHEP-1, PLC/PRF/5, and HTC cells were obtained from European Collection of Cell Cultures (ECACC; U.K), Novikoff was obtained from Cancer Research Centre (DKFZ) Heidelberg, Germany. Cells were cultured in MEM or DMEM supplemented with 10% FBS, 50 units/ml penicillin, 50 units/ml streptomycin, 25 μg/ml amphotericin B (Gibco, Grand Island, N.Y.) and maintained subconfluent at 37° C. in humidified incubators containing 5% CO2. Albendazole (Sigma, Australian subsidiary) was dissolved in absolute ethanol at concentrations that were 1000-fold higher than the final medium concentration.
# PLC/PRF/5 = assay: [3H]thymidine incorporation assay, PLC/PRF/5; format: cell-based, human; details: 5 days
# Protocol: as §1
# Novikoff = assay: [3H]thymidine incorporation assay, Novikoff; format: cell-based, rat; details: 5 days
# Protocol: as §1
# HTC = assay: [3H]thymidine incorporation assay, HTC; format: cell-based, rat; details: 5 days
# Protocol: as §1
# Hep1-6 = assay: [3H]thymidine incorporation assay, Hep1-6; format: cell-based, mice; details: 5 days
# Protocol: as §1
# [2] = system: liver (HepG2, Hep3B, PLC/PRF/5, SKHEP-1, Hep1-6, HTC, Novikoff) and colorectal cancer (C-170, HT-29 and LOVO) cell lines; assay: [3H]thymidine incorporation, liver and colorectal cancer cell lines (summary); format: cell-based, human and animal; details: liver or colorectal cancer cells
# Source text: The present inventors tested BZs and particularly albendazole against a range of liver (HepG2, Hep3B, PLC/PRF/5, SKHEP-1, Hep1-6, HTC, Novikoff) and colorectal cancer (C-170, HT-29 and LOVO) cell lines.
# SKHEP-1 cells = assay: Cell counts (trypan blue exclusion); format: cell-based, human
# Protocol: SKHEP-1 cells (2.5×10^4) were plated in six well plates. The cell treatment procedure was as described for the thymidine assay. At the end of the treatment period (1, 3 or 5 days), cells were trypsinized and counted with a hemocytometer using the trypan blue exclusion method. In all experiments, cells treated with the medium containing 0.1% ethanol were taken as the control for albendazole treated cells. All counts were obtained in quadruplicate and each experiment was repeated at least twice.
# [3] = system: SKHEP-1 subcutaneous tumor; assay: Tumor formation in nude mice; format: in vivo, BALB/c Nu/Nu mice; details: for maximum proliferation index (MPI), Ki-67: mean±s.e.m.
# Protocol: 6 to 10 weeks old male BALB/c Nu/Nu mice (Animal Resources Center, Perth, Australia) were inoculated subcutaneously with 10^6 SKHEP-1 cells into the right flank. 24 hours after inoculation animals were randomly assigned to one of the treatment groups (n=10 per group), receiving 25, 50 or 150 mg/kg twice daily oral albendazole suspended in sesame oil for 20 days.
# The control group was treated with the vehicle (sesame oil). Using vernier calipers, tumor diameter (mm) was measured on day eight and then every three days up to day 20-post tumor cell inoculation. Tumor volumes were calculated using the formula: ab^2/2 where a and b are the […] diameters in millimeters, respectively and a piece of the tumor was preserved in paraffin for immunohistochemical determination of maximum proliferation index (MPI). Here, after fixation, the specimen was processed for the detection of Ki-67 antigen with the monoclonal antibody MIB1 according to the method described by McCormick.
# The animal model was chosen on the basis of SKHEP-1 being the most tumorigenic human liver cancer cell line in nude mice and previous experience with the model.
# PC3, LNCap and Du 145 = assay: Albendazole/ABS proliferation test, prostate cancer cells; format: cell-based, human; details: 3 human prostate cell lines
# Protocol: (§2) In order to be able to test ABS, a proper solvent had to be found. […] Therefore to allow direct comparison between the 2 compounds, all subsequent experiments were run using 0.5% DMSO for both ABS and albendazole. In the cell lines examined, albendazole produced very similar results to what we had previously reported for the drug in liver cancer cells.
# (§3) Both albendazole and ABS were tested side by side against various cell lines as follows: • Liver—HepGZ Hep3B, SKHEP-1 • Colorectal—170, LOVO, HT-29 • Prostate—PC3, LNCap, Du145 • Leukeamic—HL60
# (§4) Cells were treated with various concentrations of each compound for a period of 5 days.
# [4] = system: liver, colorectal, prostate and leukeamic cell lines; assay: Albendazole/ABS side by side in various cell lines (general); format: cell-based; details: 5 days
# Protocol: as §2, §3
# The fist 9 cell lines were used to compare effectiveness and potency while, the last one was used to assess toxicity on bone marrow (as a rough guide).
# as §4
# [5] = system: ovarian cancer cells (NIH:OVCAR-3); assay: DNA laddering (apoptosis), ovarian cancer cells; format: cell-based, human
# Protocol: To find out the way albendazole works as an anticancer drug, a large variety of tests can be performed. One of the first is to see if albendazole induces apoptosis. This again is tested in several ways, one of the most common is to check for DNA laddering. […] This is the first time that the induction of apoptosis by albendazole has been reported.
# LOVO cells = assay: DNA laddering (apoptosis), LOVO; format: cell-based, human; details: 1 μM, 16 hours
# Source text: Similar results were also obtained with the human colorectal cell line LOVO.
# HepG2 [6] = assay: Combination with methimazole (MT), HepG2 growth; format: cell-based; details: HepG2, albendazole alone 0.25, 0.1 and 0.01uM, 5 days
# Protocol: The effect of inhibition of metabolism of albendazole on its antiproliferative activity was investigated using […] and the methimazole as an inhibitor of albendazole
# 5000 cells each of HepG2 and S EP1 were plated into 24 wells plates and treated for 5 days with various concentrations of albendazole alone or together with MT.
# [7] = at all times after a 400 mg oral dose; cited from earlier work
# HCC cell lines = assay: [3H]thymidine incorporation, all HCC cell lines (summary); details: 1000 nM albendazole
# Protocol: For the study of [^3H]thymidine incorporation, adherent cells (5-10×10^4) were plated onto 24-well Corning tissue culture dishes and were exposed to culture medium (5% FBS) containing the vehicle (0.1% ethanol) or different concentrations of albendazole (10^−8 to 10^−6 M). For Novikoff, a detached rat cell line, 2500 cells were suspended in 2 ml of DMEM (5% FBS) and kept under the same condition as for attached cells. Media were replaced with fresh media on alternate days. At the end of the treatment period (5 days), cell cultures were assayed for thymidine incorporation by the addition of 0.5 μCi of [^3H]thymidine (60 Ci/mmol. ICN Biochem, Irvine, Calif.) to each well for the last 4 h of culture. The amount of radioactivity incorporated into cells was determined using a β-scintillation counter. […] For the recovery experiments, SKHEP-1 cells were treated for 1 day with different concentrations of albendazole and then either assayed for [^3H]thymidine incorporation or the medium was replaced and the cells treated with fresh medium with out the drug for a further 4 days at the end of which, [^3H] thymidine incorporation assay was performed.
# [^3H]Thymidine incorporation assay was used to determine the effect of albendazole on cell proliferation in a number of human (HepG2, Hep3-B, PLC/PRF/5, SKHEP-1), rat (HTC and Novikoff) and mice (Hep1-6) HCC cell lines.
compound,measurement,setting,value
"CCCSc1ccc2nc(NC(=O)OC)[nH]c2c1 [albendazole, methyl 5-propylthio-1H-benzimidazole-2-yl carbamate]",[3H]thymidine incorporation,"HepG2 [1]; HepG2, albendazole 10 nM",93.1 ± 5.6 % control
same,[3H]thymidine incorporation,"HepG2 [1]; HepG2, albendazole 100 nM",72.9 ± 6.3 % control
same,[3H]thymidine incorporation,"HepG2 [1]; HepG2, albendazole 500 nM",12.2 ± 2.9 % control
same,[3H]thymidine incorporation,"PLC/PRF/5; PLC/PRF/5, albendazole 10 nM",92.7 ± 4.7 % control
same,[3H]thymidine incorporation,"PLC/PRF/5; PLC/PRF/5, albendazole 100 nM",69.4 ± 5.2 % control
same,[3H]thymidine incorporation,"PLC/PRF/5; PLC/PRF/5, albendazole 500 nM",26.9 ± 2.7 % control
same,[3H]thymidine incorporation,"PLC/PRF/5; PLC/PRF/5, albendazole 1000 nM",18.4 ± 2.1 % control
same,[3H]thymidine incorporation,Novikoff; albendazole 10 nM,96.5 ± 8.8 % control
same,[3H]thymidine incorporation,Novikoff; albendazole 100 nM,71.6 ± 5.9 % control
same,[3H]thymidine incorporation,Novikoff; albendazole 500 nM,29.2 ± 3.3 % control
same,[3H]thymidine incorporation,Novikoff; albendazole 1000 nM,10.3 ± 1.8 % control
same,[3H]thymidine incorporation,HTC; albendazole 10 nM,98.4 ± 7.5 % control
same,[3H]thymidine incorporation,HTC; albendazole 100 nM,86.0 ± 6.9 % control
same,[3H]thymidine incorporation,HTC; albendazole 500 nM,28.5 ± 2.2 % control
same,[3H]thymidine incorporation,HTC; albendazole 1000 nM,11.4 ± 1.3 % control
same,[3H]thymidine incorporation,"Hep1-6; Hep1-6, albendazole 10 nM",97.7 ± 4.3 % control
same,[3H]thymidine incorporation,"Hep1-6; Hep1-6, albendazole 100 nM",79.5 ± 3.2 % control
same,[3H]thymidine incorporation,"Hep1-6; Hep1-6, albendazole 500 nM",28.1 ± 2.5 % control
same,[3H]thymidine incorporation,"Hep1-6; Hep1-6, albendazole 1000 nM",5.6 ± 0.6 % control
same,concentration at which inhibitory activity starts,[2],around 0.1 micromoles/L
same,number of viable cells compared to control,"SKHEP-1 cells; SKHEP-1, 1000 nM, p<0.001",significantly reduced in number
same,number of viable cells,"SKHEP-1 cells; SKHEP-1, 1, 3 or 5 days, 100, 500 or 1000 nM (FIG. 2)",dose dependent decline in the number of cells
same,"maximum proliferation index (MPI), Ki-67",[3]; 50 mg/kg dose,22.54±1.53
same,"maximum proliferation index (MPI), Ki-67",[3]; 150 mg/kg dose,13.36±3.04
same,mean tumor volume,"[3]; 300 mg/kg dose oral in sesame oil, 20 days post inoculation, p<0.001",12.0±7.8 mm^3
same,tumor growth,[3]; 50 and 150 mg/kg per day oral,slightly but not significantly retarded
same,sensitivity of prostate cell lines in culture,"PC3, LNCap and Du 145",quite sensitive
same,antiproliferative activity at 0.25 micromoles/L,[4]; 0.25 micromoles/L,dramatically increasing
same,inhibition at 1 µM,"[4]; 120 h, 1 micromoles/L",~100%
same,concentration at which antiproliferative activity becomes evident,"[4]; 0.5% DMSO, in general",0.01 µmol/L
same,DNA laddering (apoptosis),[5],induction of DNA laddering
same,DNA laddering (apoptosis),LOVO cells,clear laddering
same,growth inhibition,HepG2 [6],no growth inhibition
same,concentration of the unchanged drug,[7],below the detection limits
same,thymidine incorporation,HCC cell lines,less than 20 % of control values
